From publication PMC9956360, “Production of a Fungal Punicalagin-Degrading Enzyme by Solid-State Fermentation: Studies of Purification and Characterization” (Foods, 2023) come the findings set out here.

This assay concerns T1, EAH (EAH 1 and EAH 2), ellagitannin-acyl hydrolase identified as alpha-L-arabinofuranosidase.
T1 construct: gene abfB; native secreted protein from solid-state fermentation, co-purified mixture; 499 residues each; domains ArabFuran-catal (20-334 / 20-333) and AbfB (352-493)
The experiment in a line: Lineweaver-Burk. Conditions: mixture of two co-purified isoforms; temperature and pH of kinetics not stated. Type of assay: biochemical, Aspergillus niger. An excerpt:
Lineweaver-Burk on EAH (EAH 1 and EAH 2), ellagitannin-acyl hydrolase identified as alpha-L-arabinofuranosidase

Usually Km stands for the concentration of substrate that gives half-maximal velocity.

For the compound `COC(=O)c1cc(O)c(O)c(O)c1` [methyl gallate], the Km amounted to 6.66 mM.
